Experimental data: patent publication US12319640B2, “Cyclic diones as herbicidal compounds” (SYNGENTA CROP PROTECTION AG, priority 2019, dated 2025)

How the values were obtained:
Experiment in all cases: Glasshouse herbicide test, pre- and post-emergence
Format in all cases: in vivo
[1] = tested on: Alopecurus myosuroides (ALOMY); conditions: 250 g/h, evaluated after 13 days, five-point scale; for percentage damage caused to the plant, ALOMY POST: post-emergence; for percentage damage caused to the plant, ALOMY PRE: pre-emergence
Description: (§1) Seeds of a variety of test species are sown in standard soil in pots (Lolium perenne (LOLPE), Setaria faberi (SETFA), Alopecurus myosuroides (ALOMY), Echinochloa crus-galli (ECHCG), Avena fatua (AVEFA)). After cultivation for one day (pre-emergence) or after 8 days cultivation (post-emergence) under controlled conditions in a glasshouse (at 24/16° C., day/night; 14 hours light; 65% humidity), the plants are sprayed with an aqueous spray solution derived from the formulation of the technical active ingredient in acetone/water (50:50) solution containing 0.5% Tween 20 (polyoxyethelyene sorbitan monolaurate, CAS RN 9005-64-5). Compounds are applied at 250 g/h. The test plants are then grown in a glasshouse under controlled conditions in a glasshouse (at 24/16° C., day/night; 14 hours light; 65% humidity) and watered twice daily. After 13 days for pre and post-emergence, the test is evaluated for the percentage damage caused to the plant. The biological activities are shown in the following table on a five-point scale (5=80-100%; 4=60-79%; 3=40-59%; 2=20-39%; 1=0-19%).

Avena fatua (AVEFA) = conditions: 250 g/h, evaluated after 13 days, five-point scale; for percentage damage caused to the plant, AVEFA POST: post-emergence; for percentage damage caused to the plant, AVEFA PRE: pre-emergence
Description: as §1

[2] = tested on: Echinochloa crus-galli (ECHCG); conditions: 250 g/h, evaluated after 13 days, five-point scale; for percentage damage caused to the plant, ECHCG POST: post-emergence; for percentage damage caused to the plant, ECHCG PRE: pre-emergence
Description: as §1

Lolium perenne (LOLPE) = conditions: 250 g/h, evaluated after 13 days, five-point scale; for percentage damage caused to the plant, LOLPE POST: post-emergence; for percentage damage caused to the plant, LOLPE PRE: pre-emergence
Description: as §1

Setaria faberi (SETFA) = conditions: 250 g/h, evaluated after 13 days, five-point scale; for percentage damage caused to the plant, SETFA POST: post-emergence; for percentage damage caused to the plant, SETFA PRE: pre-emergence
Description: as §1

CC#Cc1cc(C)c(C2C(=O)CC3(CCC(C(=O)N(C)CCO)CC3)CC2=O)c(C)c1 (stereo not shown) [Compound 1.009]
percentage damage caused to the plant, ALOMY POST [1]: 5 (5=80-100%) | percentage damage caused to the plant, ALOMY PRE [1]: 4 (4=60-79%) | percentage damage caused to the plant, AVEFA POST (Avena fatua (AVEFA)): 5 (5=80-100%) | percentage damage caused to the plant, AVEFA PRE (Avena fatua (AVEFA)): 3 (3=40-59%) | percentage damage caused to the plant, ECHCG POST [2]: 5 (5=80-100%) | percentage damage caused to the plant, ECHCG PRE [2]: 4 (4=60-79%) | percentage damage caused to the plant, LOLPE POST (Lolium perenne (LOLPE)): 5 (5=80-100%) | percentage damage caused to the plant, LOLPE PRE (Lolium perenne (LOLPE)): 5 (5=80-100%) | percentage damage caused to the plant, SETFA POST (Setaria faberi (SETFA)): 5 (5=80-100%) | percentage damage caused to the plant, SETFA PRE (Setaria faberi (SETFA)): 3 (3=40-59%)

CC#Cc1cc(C)c(C2C(=O)CC3(CCC(C(=O)NOC)CC3)CC2=O)c(C)c1 (stereo not shown) [Compound 1.010]
percentage damage caused to the plant, ALOMY POST [1]: 4 (4=60-79%) | percentage damage caused to the plant, ALOMY PRE [1]: 3 (3=40-59%) | percentage damage caused to the plant, AVEFA POST (Avena fatua (AVEFA)): 5 (5=80-100%) | percentage damage caused to the plant, AVEFA PRE (Avena fatua (AVEFA)): 3 (3=40-59%) | percentage damage caused to the plant, ECHCG POST [2]: 5 (5=80-100%) | percentage damage caused to the plant, ECHCG PRE [2]: 5 (5=80-100%) | percentage damage caused to the plant, LOLPE POST (Lolium perenne (LOLPE)): 5 (5=80-100%) | percentage damage caused to the plant, LOLPE PRE (Lolium perenne (LOLPE)): 5 (5=80-100%) | percentage damage caused to the plant, SETFA POST (Setaria faberi (SETFA)): 5 (5=80-100%) | percentage damage caused to the plant, SETFA PRE (Setaria faberi (SETFA)): 5 (5=80-100%)

CC#Cc1cc(C)c(C2C(=O)CC3(CCC(C(=O)NCCOC)CC3)CC2=O)c(C)c1 (stereo not shown) [Compound 1.011]
percentage damage caused to the plant, ALOMY POST [1]: 5 (5=80-100%) | percentage damage caused to the plant, ALOMY PRE [1]: 5 (5=80-100%) | percentage damage caused to the plant, AVEFA POST (Avena fatua (AVEFA)): 5 (5=80-100%) | percentage damage caused to the plant, AVEFA PRE (Avena fatua (AVEFA)): 5 (5=80-100%) | percentage damage caused to the plant, ECHCG POST [2]: 5 (5=80-100%) | percentage damage caused to the plant, ECHCG PRE [2]: 5 (5=80-100%) | percentage damage caused to the plant, LOLPE POST (Lolium perenne (LOLPE)): 5 (5=80-100%) | percentage damage caused to the plant, LOLPE PRE (Lolium perenne (LOLPE)): 5 (5=80-100%) | percentage damage caused to the plant, SETFA POST (Setaria faberi (SETFA)): 5 (5=80-100%) | percentage damage caused to the plant, SETFA PRE (Setaria faberi (SETFA)): 5 (5=80-100%)

CC#Cc1cc(C)c(C2C(=O)CC3(CCC(C(=O)NCCO)CC3)CC2=O)c(C)c1 (stereo not shown) [Compound 1.012]
percentage damage caused to the plant, ALOMY POST [1]: 4 (4=60-79%) | percentage damage caused to the plant, ALOMY PRE [1]: 4 (4=60-79%) | percentage damage caused to the plant, AVEFA POST (Avena fatua (AVEFA)): 4 (4=60-79%) | percentage damage caused to the plant, AVEFA PRE (Avena fatua (AVEFA)): 4 (4=60-79%) | percentage damage caused to the plant, ECHCG POST [2]: 5 (5=80-100%) | percentage damage caused to the plant, ECHCG PRE [2]: 4 (4=60-79%) | percentage damage caused to the plant, LOLPE POST (Lolium perenne (LOLPE)): 4 (4=60-79%) | percentage damage caused to the plant, LOLPE PRE (Lolium perenne (LOLPE)): 4 (4=60-79%) | percentage damage caused to the plant, SETFA POST (Setaria faberi (SETFA)): 5 (5=80-100%) | percentage damage caused to the plant, SETFA PRE (Setaria faberi (SETFA)): 4 (4=60-79%)

CC#Cc1cc(C)c(C2C(=O)CC3(CCC(C(=O)NC(C)(C)C)CC3)CC2=O)c(C)c1 (stereo not shown) [Compound 1.013]
percentage damage caused to the plant, ALOMY POST [1]: 5 (5=80-100%) | percentage damage caused to the plant, ALOMY PRE [1]: 3 (3=40-59%) | percentage damage caused to the plant, AVEFA POST (Avena fatua (AVEFA)): 4 (4=60-79%) | percentage damage caused to the plant, AVEFA PRE (Avena fatua (AVEFA)): 1 (1=0-19%) | percentage damage caused to the plant, ECHCG POST [2]: 5 (5=80-100%) | percentage damage caused to the plant, ECHCG PRE [2]: 5 (5=80-100%) | percentage damage caused to the plant, LOLPE POST (Lolium perenne (LOLPE)): 5 (5=80-100%) | percentage damage caused to the plant, LOLPE PRE (Lolium perenne (LOLPE)): 5 (5=80-100%) | percentage damage caused to the plant, SETFA POST (Setaria faberi (SETFA)): 5 (5=80-100%) | percentage damage caused to the plant, SETFA PRE (Setaria faberi (SETFA)): 5 (5=80-100%)

CC#Cc1cc(C)c(C2C(=O)CC3(CCC(C(=O)NC(C)(C#N)CC)CC3)CC2=O)c(C)c1 (stereo not shown) [Compound 1.014]
percentage damage caused to the plant, ALOMY POST [1]: 5 (5=80-100%) | percentage damage caused to the plant, ALOMY PRE [1]: 3 (3=40-59%) | percentage damage caused to the plant, AVEFA POST (Avena fatua (AVEFA)): 5 (5=80-100%) | percentage damage caused to the plant, AVEFA PRE (Avena fatua (AVEFA)): 2 (2=20-39%) | percentage damage caused to the plant, ECHCG POST [2]: 5 (5=80-100%) | percentage damage caused to the plant, ECHCG PRE [2]: 5 (5=80-100%) | percentage damage caused to the plant, LOLPE POST (Lolium perenne (LOLPE)): 5 (5=80-100%) | percentage damage caused to the plant, LOLPE PRE (Lolium perenne (LOLPE)): 5 (5=80-100%) | percentage damage caused to the plant, SETFA POST (Setaria faberi (SETFA)): 5 (5=80-100%) | percentage damage caused to the plant, SETFA PRE (Setaria faberi (SETFA)): 5 (5=80-100%)

CC#Cc1cc(C)c(C2C(=O)CC3(CCC(C(=O)NC)CC3)CC2=O)c(OC)c1 (stereo not shown) [Compound 1.016]
percentage damage caused to the plant, ALOMY POST [1]: 5 (5=80-100%) | percentage damage caused to the plant, ALOMY PRE [1]: 5 (5=80-100%) | percentage damage caused to the plant, AVEFA POST (Avena fatua (AVEFA)): 5 (5=80-100%) | percentage damage caused to the plant, AVEFA PRE (Avena fatua (AVEFA)): 5 (5=80-100%) | percentage damage caused to the plant, ECHCG POST [2]: 5 (5=80-100%) | percentage damage caused to the plant, ECHCG PRE [2]: 5 (5=80-100%) | percentage damage caused to the plant, LOLPE POST (Lolium perenne (LOLPE)): 5 (5=80-100%) | percentage damage caused to the plant, LOLPE PRE (Lolium perenne (LOLPE)): 5 (5=80-100%) | percentage damage caused to the plant, SETFA POST (Setaria faberi (SETFA)): 5 (5=80-100%) | percentage damage caused to the plant, SETFA PRE (Setaria faberi (SETFA)): 5 (5=80-100%)
